Laboratory results reported in patent US11612586B2, “Indole regulation of antigen presenting cells” (THE TEXAS A&M UNIVERSITY SYSTEM, priority 2016, dated 2023).

How the values were obtained:
[1] = system: TNF; test: TNF production in DC2.4 cell line, intracellular staining, flow cytometry; assay type: cell-based, murine
Method: Intracellular staining was performed to assess TNF production.
FIG. 8 illustrates that indole synergizes with TGF-β to inhibit TNF production in DCs. Flow cytometric analysis was performed on DC2.4 cells treated with indole or DMF control for 24 hours in the presence or absence of TGF-β (10 ng/ml). […] Shaded gray areas represent unstimulated samples. Representative histograms from one of three independent experiments.
One important way that DCs shape local immune responses is through the production of cytokines. Cytokine production was addressed in indole-conditioned dendritic cells, first using the murine dendritic cell line, DC2.4. Cells pre-treated with physiologically relevant doses of indole produced less TNF upon stimulation with the bacterial surface component and TLR4 ligand, LPS. Production of TNF was reduced by 50% following treatment with 1 mM indole (FIG. 1). This response is biologically important as LPS serves as the prototypical endotoxin, present on the surface of virtually all gram-negative bacteria including gut-resident commensal strains.

[2] = system: Stat3; test: IL-6-induced phospho-Stat3 in BMDCs, flow cytometry; assay type: cell-based, mouse
Method: Flow cytometric analysis was performed on BMDCs conditioned with indole from day 3 of culture and subsequently stimulated with IL-6 (10 ng/ml) for the given times. Cells were stained for phospho-Stat3 and analyzed by flow cytometry.
Flow cytometric analysis of BMDCs from WT or AhrKO mice cultured in the presence of indole or DMF from day 3. DCs were stimulated with IL-6 (10 ng/ml) for the given times and stained for phospho-Stat3, which was detected by flow cytometry. Stat3 signaling is shown as percent of phosphorylated cells (FIG. 10A), and MFI of the Stat3 positive population (FIGS. 10B and 10C). The specific Stat3 inhibitor, cucurbitacin I, was included as a negative control. Representative data is shown from one of four independent experiments.
BMDCs were conditioned with indole from day 3 and then induced Stat3 signaling by stimulation with IL-6 (FIGS. 6A and 6B). While Stat3 has both a tyrosine (Y705) and serine (S727) activation site, tyrosine phosphorylation is mediated by Janus kinases and required for Stat3 nuclear localization and subsequent DNA binding. Thus, the […] was queried for this study.

[3] = system: TNF; test: TNF production in splenic CD11c+ DCs ex vivo; assay type: cell-based, mouse; conditions: indole overnight
From the text: To evaluate the possible role of AhR in mediating the anti-inflammatory effects of indole on DCs, AhR-deficient mice were acquired and analyzed splenic and bone marrow-derived DCs. Splenocytes from AhR-deficient and WT mice were first treated overnight with indole, followed by stimulation with heat-killed S. typhimurium.

[4] = system: naïve CD4+CD25− T cells; test: T cell activation in the presence of BMDC supernatant: Treg induction; assay type: cell-based, mouse; conditions: T cells on α-CD3/α-CD28 plates, 72 hours
Method: Specifically, naïve CD4+CD25− T cells were FACS-sorted and plated in 96-well, α-CD3 and α-CD28-coated tissue culture plates in a volume of 100 ul cell culture media. […] T cells with DC supernatant were cultured for 72 hours in the presence or absence of exogenous TGF-β. Subsequently, cells were stained for the transcription factor Foxp3 and analyzed by flow cytometry.
Naïve CD4+CD25− T cells were FACS-sorted as described above and plated in 96-well, αCD3 and αCD28-coated tissue culture plates in a volume of 100 ul cell culture media. An equal volume of spent BMDC supernatant was added, in the presence or absence of exogenous TGF-β, and T cells were cultured for 72 hours. To generate supernatants, day 3-treated BMDCs were collected on day 7, washed extensively and plated in a 48-well cell culture plate at 5×10^5 cells per well in 500 ul fresh complete media for 24 hours in the presence or absence of 1 ug/ml LPS. Plates were then centrifuged and supernatants were collected, filtered, and stored at −20° C. until use.

[5] = system: Th17 cells; test: Th17 differentiation in DC-T cell co-culture; assay type: cell-based, mouse; conditions: co-culture with DCs conditioned with indole, Th17-skewing cytokines present
Method: FIGS. 19A-19C graphically illustrate that indole-conditioned DCs inhibit Th1, Th2, and Th17 differentiation. Naïve CD4+CD25-T cells from OT-II TCR transgenic mice were isolated by column purification. Naïve T cells were then co-cultured with OVA323-339 peptide-loaded BMDCs for 72 hours in the presence or absence of lineage-skewing cytokines (described in methods). BMDCs were previously treated with indole, RA, or DMF from day 3. For the last 5 hours of culture, T cells were restimulated with PMA and ionomycin in the presence of Golgiplug, followed by intracellular staining. Cytokine production was determined to assess differentiation of Th1 (FIG. 19A), Th2 (FIG. 19B), and Th17 CD4+T (FIG. 19C) cells. Mean of three independent experiments. * indicates p<0.05 for one-way ANOVA followed by Dunnett's post-test.
In order to determine whether the indole-conditioned DC induction of Tregs was specific to this lineage, additional T cell fates were quieried. Activated CD4+T helper cells are typically divided into the subsets Th1, Th2, Th17, and Treg, based on their expression of transcription factors and pattern of cytokine secretion. The antigen-specific co-culture system was used to investigate these remaining traditional T cell lineages with the addition of an endpoint PMA/Ionomycin stimulation to induce cytokine secretion. […]

With `c1ccc2[nH]ccc2c1` [Indole, indole] the “reduction of TNF production” value ([1]; DC2.4, 1 mM indole pre-treatment, LPS stimulation) was 50%, the “inhibition of TNF production with concurrent TGF-β treatment” value ([1]; DC2.4, indole 24 hours with TGF-β (10 ng/ml), LPS 1 ug/ml 4 hours) was “marked synergistic effect” and the “peak phosphorylation of Stat3 (percentage of DCs)” value ([2]; BMDCs, 1 mM indole from day 3, IL-6 10 ng/ml, 15 minutes post-stimulation) was 8%. For the same compound, the “suppression of phospho-Stat3 MFI” value ([2]; BMDCs, indole from day 3, IL-6 stimulation, throughout 60 minute timecourse) was ≥ 2 fold, the “inhibition of Stat3 phospho-signaling, WT versus AhR−/−” value ([2]; indole-DCs generated from WT or AhR−/− bone marrow) was “nearly equivalent inhibition” and the “inhibition of TNF production” value ([3]; splenic CD11c+ DCs, LPS or heat-killed S. typhimurium) was ≥ 2 fold. The “inhibition of TNF production” value ([3]; splenic DCs from AhR−/− mice, heat-killed S. typhimurium) was 2 fold, the “inhibition of TNF production” value ([3]; splenic DCs from WT mice, heat-killed S. typhimurium) was 2 fold and the “Treg induction by supernatant of conditioned BMDCs relative to solvent control DCs” value [4] was “No significant induction of Tregs”. For the same compound, the “Th17 differentiation, rate of T cells” value [5] was “less than 0.5%”.
